Test results: patent publication US5962314A, “Calcium receptor-active molecules” (priority 1997, dated 1999)
Entries after “also recorded” stand apart in the source; their conditions may differ. Like-named read-outs stand apart in the source and are kept apart here.

Tests used:
[1] = target: T1, human parathyroid cell calcium receptor (Homo sapiens, UniProt P41180); assay: Cl- current in Xenopus oocytes expressing human parathyroid cell calcium receptor; type: cell-based; settings: for effect on Cl- current: 3 to 30 μM, 0.3 mM extracellular Ca2+
T1 construct: T7 cRNA injected into Xenopus oocytes
T1 sequence (P41180 with tags, fused parts or gaps INS536PLTFVLSVLQ/Q926R/E1011Q): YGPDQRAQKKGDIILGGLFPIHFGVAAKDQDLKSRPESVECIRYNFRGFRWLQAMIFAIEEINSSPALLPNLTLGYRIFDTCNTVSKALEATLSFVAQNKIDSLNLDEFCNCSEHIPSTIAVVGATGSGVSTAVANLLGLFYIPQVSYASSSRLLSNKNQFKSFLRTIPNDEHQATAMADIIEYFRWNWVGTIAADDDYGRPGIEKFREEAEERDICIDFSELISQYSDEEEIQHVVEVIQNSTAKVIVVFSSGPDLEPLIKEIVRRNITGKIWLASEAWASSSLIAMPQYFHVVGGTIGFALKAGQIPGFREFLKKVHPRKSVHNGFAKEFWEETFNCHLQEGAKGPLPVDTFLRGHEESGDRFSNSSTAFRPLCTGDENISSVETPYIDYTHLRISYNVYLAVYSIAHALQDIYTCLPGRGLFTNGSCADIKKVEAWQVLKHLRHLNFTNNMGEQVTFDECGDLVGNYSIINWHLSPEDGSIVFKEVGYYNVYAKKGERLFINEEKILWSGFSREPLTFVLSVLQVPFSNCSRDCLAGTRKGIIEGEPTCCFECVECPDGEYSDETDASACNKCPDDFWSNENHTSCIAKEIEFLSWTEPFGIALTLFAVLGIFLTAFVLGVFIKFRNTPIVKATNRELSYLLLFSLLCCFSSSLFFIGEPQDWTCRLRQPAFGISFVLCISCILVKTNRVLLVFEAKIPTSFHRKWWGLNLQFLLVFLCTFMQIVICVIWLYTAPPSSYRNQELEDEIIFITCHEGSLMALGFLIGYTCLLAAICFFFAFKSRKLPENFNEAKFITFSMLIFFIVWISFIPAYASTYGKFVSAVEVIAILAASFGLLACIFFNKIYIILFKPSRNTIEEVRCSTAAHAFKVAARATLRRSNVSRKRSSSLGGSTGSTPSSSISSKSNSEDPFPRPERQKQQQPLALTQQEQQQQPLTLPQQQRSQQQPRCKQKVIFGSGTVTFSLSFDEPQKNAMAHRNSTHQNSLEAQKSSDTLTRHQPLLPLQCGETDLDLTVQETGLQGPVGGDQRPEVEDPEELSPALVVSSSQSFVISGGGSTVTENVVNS
Procedure: Representative cDNA inserts for both size classes were subcloned into the plasmid vector pBluescript SK. Linearization followed by in vitro transcription using T7 RNA polymerase produced cRNA transcripts. The cRNA transcripts were injected into Xenopus oocytes (150 ng/μl RNA; 50 nl/oocyte) for functional analysis. Following incubation periods of 2-4 days, the oocytes were assayed for the presence of functional calcium receptors. Both clone types gave rise to functional calcium receptors as assessed by the stimulation of calcium-activated chloride currents upon addition of appropriate calcium receptor agonists. […] Thus, both clones encode a functional, human parathyroid cell calcium receptor.
Xenopus oocytes were injected with pHuPCaR 5.2, the 5.2 Kb cDNA encoding a parathyroid cell calcium receptor derived from a human parathyroid cell adenoma. (See Example 27.) After two to three days, Cl^- currents were measured in the oocytes using a two-electrode voltage clamp.

[2] = target: T2, parathyroid cell calcium receptor (Bos taurus, UniProt P35384); assay: cell-based; type: cell-based
T2 sequence (P35384 20-1085): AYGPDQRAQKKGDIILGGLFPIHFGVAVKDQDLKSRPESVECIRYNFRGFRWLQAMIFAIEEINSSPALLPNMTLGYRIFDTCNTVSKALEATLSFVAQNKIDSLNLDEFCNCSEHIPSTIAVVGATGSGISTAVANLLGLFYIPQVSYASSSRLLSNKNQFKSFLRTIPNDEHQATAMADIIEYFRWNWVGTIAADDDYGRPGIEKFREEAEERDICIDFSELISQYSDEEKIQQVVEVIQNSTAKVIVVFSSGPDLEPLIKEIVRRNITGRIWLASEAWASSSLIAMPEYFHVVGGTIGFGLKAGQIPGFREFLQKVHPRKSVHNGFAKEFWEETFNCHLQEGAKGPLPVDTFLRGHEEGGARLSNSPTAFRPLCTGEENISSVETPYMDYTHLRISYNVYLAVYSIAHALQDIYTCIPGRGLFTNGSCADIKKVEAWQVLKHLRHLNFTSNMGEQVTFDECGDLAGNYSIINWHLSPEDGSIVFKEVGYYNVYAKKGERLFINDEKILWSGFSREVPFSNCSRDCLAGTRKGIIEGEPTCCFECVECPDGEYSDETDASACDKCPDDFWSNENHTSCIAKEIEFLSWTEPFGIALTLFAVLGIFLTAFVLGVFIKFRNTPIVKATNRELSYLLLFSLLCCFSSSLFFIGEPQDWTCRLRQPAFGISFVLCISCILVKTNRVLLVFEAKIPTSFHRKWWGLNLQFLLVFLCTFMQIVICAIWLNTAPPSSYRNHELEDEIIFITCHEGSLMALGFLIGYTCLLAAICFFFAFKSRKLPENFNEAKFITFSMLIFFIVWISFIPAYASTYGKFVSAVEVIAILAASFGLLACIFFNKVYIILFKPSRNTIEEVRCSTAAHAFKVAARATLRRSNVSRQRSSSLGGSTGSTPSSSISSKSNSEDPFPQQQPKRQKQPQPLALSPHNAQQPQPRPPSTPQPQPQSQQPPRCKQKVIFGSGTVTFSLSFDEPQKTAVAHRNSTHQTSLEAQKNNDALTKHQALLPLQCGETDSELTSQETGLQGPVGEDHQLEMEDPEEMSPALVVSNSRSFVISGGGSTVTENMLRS
Procedure: For example,. bovine parathyroid cells loaded with fura-2 are initially suspended in buffer containing 0.5 mM CaCl2. A test substance is added to the cuvette in a small volume (5-15 μl) and changes in the fluorescence signal are measured. Cumulative increases in the concentration of the test substance are made in the cuvette until some predetermined concentration is achieved or no further changes in fluorescence are noted.
Human parathyroid glands, were obtained from patients undergoing surgical removal of parathyroid tissue for primary or uremic hyperparathyroidism (uremic HPT), and were treated similarly to bovine tissue.
The cells were then pelleted, resuspended in the same buffer, but lacking the ester, and incubated a further 15 minutes at 37° C. The cells were subsequently washed twice with PCB containing 0.5 mM CaCl2 and 0.5% BSA and maintained at room temperature (about 20° C.). Immediately before use, the cells were diluted five-fold with prewarmed 0.5 mM CaCl2 -PCB to obtain a final BSA concentration of 0.1%. The concentration of cells in the cuvette used for fluorescence recording was 1-2×10^6 /ml.
The fluorescence of indicator-loaded cells was measured at 37° C. in a spectrofluorimeter (Biomedical Instrumentation Group, University of Pennsylvania, Philadelphia, Pa.) equipped with a thermostated cuvette holder and magnetic stirrer using excitation and emission wavelengths of 340 and 510 nm, respectively. […] Leakage of dye is dependent on temperature and most occurs within the first 2 minutes after warming the cells in the cuvette. Dye leakage increases only very slowly thereafter. To correct the calibration for dye leakage, cells were placed in the cuvette and stirred at 37° C. for 2-3 minutes. The cell suspension was then removed, the cells pelleted, and the supernatant returned to a clean cuvette. […] This estimate was subtracted from the apparent Fmin.

[3] = test system: serum ionized calcium; assay: serum ionized Ca2+ in rats; type: in vivo, rat; settings: NPS R-568 oral
Procedure: Compounds shown to activate the bovine parathyroid cell calcium receptor in vitro were tested for hypocalcemic activity in vivo. Male Sprague-Dawley rats (200 g) were maintained on a low calcium diet for one week prior to receiving test substance or vehicle as control. Blood was collected from the tail vein three hours after the intra-peritoneal administration of NPS 467. […] Serum total calcium, albumin and phosphate were measured by techniques well known in the art.
Rats (male, Sprague-Dawley, 250-300 g) were fed standard rat chow and fasted overnight prior to the experiment. NPS R-467 was suspended in corn oil and administered as a single oral dose through a gavage needle. Three hours later a sample of blood was taken from the tail vein and assessed for ionized Ca^2+ levels.

[4] = test system: serum ionized calcium; assay: serum ionized Ca2+ in parathyroidectomized rats; type: in vivo, rat; settings: NPS R-467 10 mg/kg i.p., 6 hours; NPS R-568 oral
Text: To determine the primary target tissue upon which NPS R-467 acts to cause a hypocalcemic response, the parathyroid glands in rats were surgically removed. Animals receiving a total parathyroidectomy become hypocalcemic and are largely dependent upon dietary calcium to maintain serum Ca^2+ homeostasis.

| SMILES | effect on Cl- current [1] | response in absence of extracellular Ca2+ [1] | effect on [Ca2+]i [2] | effect on response to extracellular Ca2+ [2] | effect on [Ca2+]i in absence of extracellular Ca2+ ([2]; Ca2+-free buffer) | activation of oocyte-expressed receptor [1] | effect on extracellular Ca2+ concentration-response curve [1] | hypocalcemic response after complete nephrectomy ([3]; prior complete nephrectomy) | effect on serum Ca2+, oral ([3]; rats) | effect on serum ionized Ca2+ in parathyroidectomized rats [4] | effect on [Ca2+]i ([2]; 10 μM, Ca2+-free) | effect on [Ca2+]i ([2]; 100 μM, Ca2+-free) | effect on extracellular Ca2+-evoked increases in [Ca2+]i ([2]; neomycin B 30 μM / maximally effective concentration) | effect on intracellular Ca2+ ([2]; neomycin B 30 μM, protamine 1 μg/ml) |
| --- | --- | --- | --- | --- | --- | --- | --- | --- | --- | --- | --- | --- | --- | --- |
| NCCCNCCCCNCCCNCCCNCCCNC(=O)Cc1c[nH]c2ccccc12 [NPS 019] | evoked increases in the Cl^- | persisted | – | – | – | – | – | – | – | – | – | – | – | – |
| COc1cccc([C@@H](C)NCCCc2ccccc2Cl)c1 [NPS R-568, (R)-(+)-N-[3-(2-chlorophenyl)propyl]-α-methyl-3-methoxybenzylamine] | evoked increases in the Cl^- | abolished | evokes increases in [Ca^2+ ]i in bovine parathyroid cells in a stereospecific manner | shifts the concentration-response curve for extracellular Ca^2+; also recorded: shift to the left in the concentration-response curve for extracellular Ca^2+ | fails to evoke increases in [Ca^2+ ]i; also recorded: do not cause the mobilization of intracellular Ca^2+ | activated the oocyte-expressed receptor at about the same concentrations | shifted the concentration-response curve to the left | only marginally affected | dose-dependent decrease in the levels of serum Ca^2+ | fails to elicit a hypocalcemic response | – | – | – | – |
| NC[C@@H]1O[C@H](O[C@H]2[C@@H](O)[C@H](O[C@@H]3[C@@H](O)[C@H](N)C[C@H](N)[C@H]3O[C@H]3O[C@H](CN)[C@@H](O)[C@H](O)[C@H]3N)O[C@@H]2CO)[C@H](N)[C@@H](O)[C@@H]1O [Neomycin] | – | – | evoked rapid and transient increases in [Ca^2+ ]i | – | – | – | – | – | – | – | did not by itself cause an increase in [Ca^2+ ]i | evoked a rapid and transient increase in [Ca^2+ ]i | blocks transient, but does not block steady-state increases in [Ca^2+ ]i; also recorded: blocked transient, but not steady-state increases in [Ca^2+ ]i | mobilization of intracellular Ca^2+ |
